Test results from US12383544B2, “Methods for the treatment of polycystic kidney disease” (Galapagos NV, priority 2019, dated 2025).

Assays:
wild type human CFTR = target: T1, wild type human CFTR (Homo sapiens, UniProt P13569); experiment: Yellow Fluorescent Protein (YFP) halide assay in wild type CFTR (HEK293 cells); assay type: cell-based; conditions: HEK293 cells transfected with wild type human CFTR; 24 h incubation; 10 μM forskolin; read-out: EC50 of inhibition of WT CFTR
T1 construct: expressed in transfected cells; host or cells: HEK293
T1 sequence (P13569 whole entry): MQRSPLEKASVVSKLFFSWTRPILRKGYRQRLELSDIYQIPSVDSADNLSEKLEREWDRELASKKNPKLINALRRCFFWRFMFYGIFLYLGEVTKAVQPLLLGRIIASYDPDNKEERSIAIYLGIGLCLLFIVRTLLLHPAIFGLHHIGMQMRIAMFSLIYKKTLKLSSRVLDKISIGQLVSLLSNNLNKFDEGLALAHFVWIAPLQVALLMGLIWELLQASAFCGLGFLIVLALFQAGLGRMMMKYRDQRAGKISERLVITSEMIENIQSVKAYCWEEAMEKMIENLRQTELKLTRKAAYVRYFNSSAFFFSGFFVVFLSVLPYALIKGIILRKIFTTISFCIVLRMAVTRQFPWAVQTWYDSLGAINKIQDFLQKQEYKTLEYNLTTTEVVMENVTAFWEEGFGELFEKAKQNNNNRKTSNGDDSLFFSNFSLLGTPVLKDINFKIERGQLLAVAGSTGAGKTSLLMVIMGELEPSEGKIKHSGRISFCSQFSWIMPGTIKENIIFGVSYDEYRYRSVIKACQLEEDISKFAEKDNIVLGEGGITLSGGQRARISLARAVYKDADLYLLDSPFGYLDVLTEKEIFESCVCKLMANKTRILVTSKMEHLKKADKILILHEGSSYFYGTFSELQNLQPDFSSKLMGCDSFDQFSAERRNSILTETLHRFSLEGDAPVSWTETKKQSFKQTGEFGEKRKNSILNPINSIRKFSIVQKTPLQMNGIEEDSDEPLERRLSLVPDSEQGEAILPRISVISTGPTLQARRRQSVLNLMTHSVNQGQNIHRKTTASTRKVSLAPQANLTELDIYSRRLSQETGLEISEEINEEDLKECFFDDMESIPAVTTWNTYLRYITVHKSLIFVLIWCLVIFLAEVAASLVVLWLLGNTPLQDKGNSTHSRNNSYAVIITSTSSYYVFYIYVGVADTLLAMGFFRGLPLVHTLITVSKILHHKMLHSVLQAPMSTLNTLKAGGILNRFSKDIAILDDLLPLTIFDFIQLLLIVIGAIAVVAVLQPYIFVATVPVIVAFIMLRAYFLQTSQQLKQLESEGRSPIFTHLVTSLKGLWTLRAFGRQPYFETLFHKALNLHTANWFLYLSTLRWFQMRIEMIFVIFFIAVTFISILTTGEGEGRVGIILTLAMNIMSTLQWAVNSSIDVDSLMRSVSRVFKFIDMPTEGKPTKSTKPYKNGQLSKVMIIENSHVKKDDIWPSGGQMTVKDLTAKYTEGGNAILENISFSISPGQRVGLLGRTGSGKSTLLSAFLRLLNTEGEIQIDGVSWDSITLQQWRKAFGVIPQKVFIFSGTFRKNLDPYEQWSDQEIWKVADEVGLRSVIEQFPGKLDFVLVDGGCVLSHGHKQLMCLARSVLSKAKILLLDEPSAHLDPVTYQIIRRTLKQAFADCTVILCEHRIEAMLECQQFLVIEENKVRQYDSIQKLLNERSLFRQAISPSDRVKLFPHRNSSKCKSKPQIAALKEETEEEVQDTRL
Description: To evaluate the ability of a test compound to inhibit wild type CFTR, a YFP halide assay using HEK293 cells transfected with wild type human CFTR was developed. (Galietta, Jayaraman, and Verkman 2001) Cells were incubated during 24 h with a dose range of test compound and the resulting wild type CFTR activity was plotted to obtain the EC50.
Test compounds were also added together with forskolin to wild type CFTR expressing cells in order to fully active the available CFTR at the plasma membrane and determine accurately the inhibition of the channel activity.
HEK293 cells were transfected with 10 to 80 ng of wild type CFTR and 20 ng of plasmid encoding YFP (H148Q/I152L/F47L) using jetPEI (Polyplus transfection). Directly after transfection, cells were seeded in black 96-well plates coated with Poly-D-lysine at a density of 70,000 cells per well. The next day, cells were treated with corrector(s) for 24 h. After this incubation period, cells were washed twice with DPBS with Ca^2+ and Mg^2+. Subsequently, cells were treated with 10 μM forskolin and the desired concentration of potentiator in a volume of 40 μl and incubated at room temperature for 10 min, a time point optimized in previous experiments resulting in a good window (positive control/negative control >2) and signal to background ratio. YFP fluorescence was measured using an EnVision plate reader (PerkinElmer). […]

wt CFTR (CFTR channel) = target: T2, wt CFTR (CFTR channel) (Homo sapiens, UniProt P13569); experiment: TECC assay on normal primary human bronchial epithelial (HBE) cells; assay type: cell-based; conditions: 0.3 μM forskolin
T2 construct: evaluate compounds on normal primary bronchial epithelial cells (HBE cells); endogenous in cells; host or cells: normal primary human bronchial epithelial (HBE) cells from donor lungs
T2 sequence (P13569 whole entry): as above
Description: The TECC assay is used to evaluate compounds on normal primary bronchial epithelial cells (HBE cells), which are closer to physiological conditions
Bronchial epithelial cells isolated from transplanted lungs from normal (wt CFTR) were isolated from lungs obtained from donors undergoing a planned transplantation. These primary cells were cultured directly on type IV collagen-coated polycarbonate Transwell supports with a diameter of 6.5 mm and pore size of 0.4 μm (Costar, #3397) for 18 to 25 days in air liquid (ali) interface essentially as previously described for TECC. (Fulcher et al. 2005)
Trans-epithelial clamp circuit (TECC) recordings were performed using the TECC instrument developed and sold by EP Design (Bertem, Belgium). During the recording, the epithelial cells were bathed in a NaCl-Ringer solution (120 mM NaCl, 20 mM HEPES, 1.2 mM CaCl2, 1.2 mM MgCl2, 0.8 mM KH2PO4, 0.8 mM K2HPO4, 5 mM glucose, pH 7.4) on both the basolateral (640 μl) and the apical side (160 μl) and kept at 37° C. Apical amiloride was used to inhibit the endogenous ENaC currents (100 μM) while forskolin (0.3 μM) was applied on both the apical and basolateral sides to stimulate CFTR. All triggers and compounds used during the experiment were first dissolved in DMSO to a 1000× concentrated solution, just prior to treatment a 10× stock was prepared in the NaCl-Ringer solution which was used for addition of the correct concentration of trigger and or compound during the experiment. Cells were treated with test compounds for 24 hours before recording and this treatment was repeated in the TECC buffer prior to the electrophysiological recording. Measurements were done during a 20-min timeframe with recordings every 2 min. The transepithelial potential (PD) and transepithelial resistance (Rt) were measured in an open circuit and transformed to Ieq using Ohm's law. The maximal increase in Ieq (Δ Ieq) was used as a measure for the increased CFTR activity.

[1] = system: PKD1^flox/flox / ubiquitous CreER^T2 mice; experiment: In vivo ADPKD mice model in combination with tolvaptan (meta-analysis of two experiments)
Description: The ADPKD mice model is based on PKD1^flox/flox (with lox sites flanking exons 2-4)/ubiquitous CreER^T2 mice in which the PKD1 gene is ubiquitously knock-out by the activation of the Cre recombinase by treatment of the mice with Tamoxifen at day 12 after birth (in nursing female). Homozygotous knock-out of the PKD1 gene leads to the rapid formation of kidney cysts mimicking to a certain extend the development of ADPKD disease in human.
Before experimentations, mouse colonies of PKD1^flox/flox (with lox sites flanking exons 2-4)/ubiquitous CreER^T2 were maintained at Charles River Laboratories (France). To induce Cre recombinase activity, tamoxifen (60 mg/kg in sunflower oil) was delivered in nursing females by intraperitoneal injection at postnatal day 12. Subsequently, tamoxifen-containing milk was administered to pups. Treatments started at 4 weeks of age for 11 weeks. Tolvaptan was incorporated in diet (0.1%) and given alone or in combination with Cpd 2, administered at 250 mg/kg, q. d., p.o. At initiation of treatment and on a regular basis during the study, serum was collected to determine levels of blood urea nitrogen (BUN) on a Spotchem bioanalyzer. At necropsy, kidneys were collected and weighed to determine kidney weight/body weight ratio.
Two independent experiments were conducted.
A two-way ANOVA with Dunnett post-hoc multiple comparisons of all experimental groups versus the diseased group has been applied to the log Fold Change (log FC) of BUN ([…]) at sacrifice (Week 15) versus BUN at Week 4 as function of Group and Study.
The mean fold change at week 15 (sacrifice) vs week 4 (treatment initiation) is calculated, assuming a 100% change for the diseased group (untreated).

EC50 (wild type human CFTR) [nM]	pIC50 (wt CFTR (CFTR channel))	IC50 (wt CFTR (CFTR channel); read-out: IC50 value (resulting from pIC50) (converted)) [nM]	Compound	BUN Mean fold changes on week 15 vs week 4 ([1]; Cpd 2 250 mg/kg q.d. p.o., Tolvaptan 0.1% in diet, treatment from 4 weeks of age for 11 weeks)	BUN fold change vs the diseased group (in words) ([1]; administered from week 4 to week 15)	BUN % of Mean Diseased fold change ([1]; week 15 vs week 4, diseased group = 100, Cpd 2 250 mg/kg q.d. p.o., Tolvaptan 0.1% in diet) [%]
102	7.50	32	COC1CCN(C2CCN(c3cc(C(=O)NS(=O)(=O)N(C)C)nc4c3c(C3CCC3)nn4-c3ccc(F)cc3)CC2)CC1 [Cpd 2]			
			Cc1ccccc1C(=O)Nc1ccc(C(=O)N2CCCC(O)c3cc(Cl)ccc32)c(C)c1 (stereo not drawn) [Tolvaptan, tolvaptan]	1.889	did not result in a significant fold change	80.7
